The subject of experiment [1] is SARS-CoV-2. The class given is cell-based, SARS-CoV-2 strain BavPat1. As to conditions: VeroE6 cells.
Experiment [2] concerns SARS-CoV-2. The experiment in a line: Antiviral assay using bronchial human airway epithelium. In kind it is cell-based, SARS-CoV-2 strain BavPat1.
Experiment [3] has as its system SARS-CoV-2. Further details: species or system golden Syrian hamsters. As to conditions: hamster, in vivo.
For experiment [4] the following is noted: hospitalized COVID-19 patients; ref Aman et al., 2021; cited from earlier work.
The subject of experiment [5] is SARS-CoV-2. The experiment in a line: Lung histology of infected hamsters. As to conditions: sacrificed at 5 dpi. In kind it is in vivo, golden Syrian hamsters.

Where two headings read alike, the source gives them in different places.

In the case of `O=C(Nc1ccc(OC(F)(F)Cl)cc1)c1cnc(N2CC[C@@H](O)C2)c(-c2cc[nH]n2)c1` [Asciminib], the “selectivity Index (SI, CC50/EC50)” value in the experiment on SARS-CoV-2 [1] was determined as 1.1. The antiviral activity entry in the experiment with SARS-CoV-2 [1] (SARS-CoV-2) was “did not show any antiviral activity”.

With `Cc1ccc(NC(=O)c2ccc(CN3CCN(C)CC3)cc2)cc1Nc1nc(-c2cccnc2)cs1` [Masitinib], the “selectivity Index (SI, CC50/EC50)” value in the experiment on SARS-CoV-2 [1] came out at 11.5.

For `CCC(CC)COC(=O)[C@H](C)N[P@](=O)(OC[C@H]1O[C@@](C#N)(c2ccc3c(N)ncnn23)[C@H](O)[C@@H]1O)Oc1ccccc1` [Remdesivir], the “antiviral activity (viral RNA yields and infectious titres in apical washes)” value in the experiment with SARS-CoV-2 [2] is “strong antiviral activity”.

Turning to `NC(=O)c1nc(F)c[nH]c1=O` [Favipiravir], in the experiment with SARS-CoV-2 [3], the “lung infectious titers (TCID50 assay)” value is recorded as “significant reductions”; the “lung viral RNA yields (RT-qPCR)” value was “significant reductions”; the “viral replication in clarified lung homogenates and plasma” value is listed as “significant reduction of viral replication”.

In the case of `Cc1ccc(NC(=O)c2ccc(CN3CCN(C)CC3)cc2)cc1Nc1nccc(-c2cccnc2)n1` [Imatinib], the “viral RNA yields in apical washes” value in the experiment with SARS-CoV-2 [2] is given as “small significant reduction”. For the same compound, the “antiviral activity (viral RNA yields and infectious titres in apical washes)” value in the experiment on SARS-CoV-2 [2] ([…], imatinib 10, 5, remdesivir 10 μM) is “no other significant antiviral activity”. The “molecular plasma viral loads” value in the experiment with SARS-CoV-2 [3] (po) was “did not affect significantly”. For the same compound, the “time to discontinuation of supplemental oxygen and mechanical ventilation” value in experiment [4] was “does not reduce the time to discontinuation of supplemental oxygen and mechanical ventilation”. Moreover, in the experiment on SARS-CoV-2 [5] (first experiment, 32 mg/day), the “lung histopathological impairements vs untreated group” value is recorded as “significant improvement”. Further, the “lung histopathology grade severity” value in the experiment on SARS-CoV-2 [5] (second experiment, 32, 16 and 8 mg/day) is recorded as “did not led to a significant improvement”.

Values taken from PMC8274277 (Antiviral Research, 2021).
